Calls of active or inactive are those of the source. How the calls were made is not given here. Some results are limits rather than exact numbers.

The target in the test is Methionine sulfoxide reductase A (Bos taurus). Briefly: bovine MsrA activator potency, dose response, biochemical, absorbance, late stage (AID 624497). The conditions noted are these: purified MsrA enzyme activity, absorbance read-out.
Broadly, the EC50 is the concentration at which the effect is half-maximal. As for `COc1ccccc1NC(=O)COC(=O)c1ccc([N+](=O)[O-])s1`, the EC50 entry was “inactive”.

`OCC[n+]1c2ccccc2nc2ccc(N3CCOCC3)cc21`: the EC50 entry is “inactive”.

As to `O=C1CN(C(=O)COC(=O)c2ccc([N+](=O)[O-])s2)c2ccccc2N1`, the EC50 result was “inactive”.

For the molecule `CC(C)(C)c1ccc(NC(=O)COC(=O)c2ccc([N+](=O)[O-])s2)cc1`, the EC50 was > 104 µM (inactive).

Take `O=C1c2ccccc2-c2nnc(-c3ccccc3)cc21`: the EC50 was > 104 µM (inactive).

For the molecule `Nc1nc(=S)ss1`, the EC50 result is “inactive”.

Turning to `O=C(OCC(=O)N(c1ccccc1)c1ccccc1)c1ccc([N+](=O)[O-])s1`, the EC50 entry was “inactive”.

As for `O=C(COC(=O)c1ccc([N+](=O)[O-])s1)c1ccc[nH]1`, the EC50 result was “inactive”.

In the case of `CNc1ccc2nc3ccccc3[n+](C)c2c1`, the EC50 was 2.05 µM.

As for `Cc1oc2c(c1C(=O)c1ccccc1)C(=O)C(=O)c1ccccc1-2`, the EC50 is > 104 µM (inactive).

Consider `O=C(OCc1nnc(-c2ccccc2)o1)c1ccc([N+](=O)[O-])s1`, for which the EC50 result is “inactive”.

For `CS(=O)(=O)c1ccc(N)c(SSc2cc(S(C)(=O)=O)ccc2N)c1`, the EC50 is > 104 µM (inactive).

With `O=C1C(Cl)=C(Nc2ccc(O)cc2)C(=O)c2ccccc21`, the EC50 is > 104 µM (inactive).

Regarding `O=C1C(=O)c2cccnc2-c2ncccc21`, the EC50 is 4.46 µM.

Take `NC1=C(Br)C(=O)c2ccccc2C1=O`: the EC50 is > 104 µM (inactive).

For the molecule `O=C(COC(=O)c1ccc([N+](=O)[O-])s1)NCc1ccc(F)cc1`, the EC50 entry is “inactive”.

Turning to `O=C(COC(=O)c1ccc([N+](=O)[O-])s1)NCCc1ccccc1`, the EC50 result was “inactive”.

`c1ccc2[nH]c3cc4ncnc4cc3nc2c1`: the EC50 result is “inactive”.

Regarding `COCCCn1c(=O)c2ccccc2n2c(=S)[nH]nc12`, the EC50 is > 104 µM (inactive).

Regarding `COc1cc(NC(=O)COC(=O)c2ccc([N+](=O)[O-])s2)cc(OC)c1OC`, the EC50 is > 104 µM (inactive).

`O=C(COC(=O)c1ccc([N+](=O)[O-])s1)Nc1cccc(S(=O)(=O)NC2=NCCCCC2)c1`: the EC50 was > 104 µM (inactive).

Consider `O=C(COC(=O)c1ccc([N+](=O)[O-])s1)NNC(=O)c1ccccc1`, for which the EC50 is > 104 µM (inactive).

In the case of `C[n+]1c2ccccc2nc2ccc(NCCO)cc21`, the 50% effective concentration (EC50) is 4.93 µM.

Regarding `O=C1C=C(Nc2ccccc2O)c2ccccc2C1=O`, the EC50 was > 104 µM (inactive).

For `O=C(OCC(=O)c1c[nH]c2ccccc12)c1ccc([N+](=O)[O-])s1`, the EC50 is > 104 µM (inactive).

`O=[N+]([O-])c1ccc(C=Nc2cccc3ccccc23)s1`: the EC50 is > 104 µM (inactive).

Take `O=C(OCC(=O)N1CCN(c2ccccc2)CC1)c1ccc([N+](=O)[O-])s1`: the EC50 result is “inactive”.

In the case of `CC1CCCC(NC(=O)COC(=O)c2ccc([N+](=O)[O-])s2)C1C` (configuration not stated), the EC50 entry was “inactive”.

On to `O=C(COC(=O)c1ccc([N+](=O)[O-])s1)Nc1ccccc1`, for which the EC50 is > 104 µM (inactive).

With `Cc1ccc2[nH]c3c(c2c1)CN(C(=O)CN1CCN(c2ccccn2)CC1)CC3`, the EC50 is > 104 µM (inactive).

Regarding `O=C(c1ccccc1)c1coc2c1C(=O)c1ccccc1C2=O`, the EC50 result is “inactive”.

Regarding `COc1ccc(S(=O)(=O)N2CCOCC2)cc1NC(=O)COC(=O)c1ccc([N+](=O)[O-])s1`, the EC50 entry is “inactive”.

These data come from PubChem BioAssay AID624497 (The Scripps Research Institute Molecular Screening Center, 2012).
